The text below walks through data of patent US20230233492A1, “PHARMACEUTICAL COMBINATION COMPRISING A BRAIN AMINOPEPTIDASE A INHIBITOR, A DIURETIC AND A BLOCKER OF THE SYSTEMIC RENIN-ANGIOTENSIN SYSTEM” (QUANTUM GENOMICS, priority 2020, published 2023).

The subject of experiment [1] is spontaneously hypertensive rats (SHRs). Particulars: oral administrations, 15 to 150 mg/kg; cited from earlier work.
Another experiment relates to hypertensive patients. Particulars: monotherapy; mild to moderate hypertensive patients and diverse high-risk hypertensive population; cited from earlier work.
The subject of experiment [2] is conscious hypertensive DOCA-salt rats. Put plainly: Acute oral administration: MABP and HR recording in conscious freely moving DOCA-salt rats. To be noted: single oral administration. The class given is in vivo, rat. The method, then: Male deoxycorticosterone acetate (DOCA)-salt rats weighing 250 to 350 g were purchased from Charles River Laboratories (L'Arbresle, France). Animals were randomly assigned in each group with allocation concealment, and blinding procedures were used with coding systemAnimal care and surgical procedures were performed according to the Directive 2010/63/EU. The project was submitted to the appropriate ethics committee and authorization was obtained: 30 CEEA No 59, reference number 01962.01. Animals were kept under artificial light (12 h light/12 h dark cycle) with ad libitum access to a standard diet and saline water (0.9% NaCl, 0.2% KCl).
Male DOCA-salt rats were anesthetized with 3% isoflurane (Iso-Vet®, Piramal, UK) for induction and 1.5-2% isoflurane for maintenance. A catheter (0.011″X.024″X.0065″) was inserted into the right femoral artery to monitor mean arterial blood pressure (MABP) and heart rate (HR). The catheters were tunneled subcutaneously to exit from the neck. Animals were allowed to recover from surgery for at least 48 h before MABP recording. Baseline MABP was recorded before drug administration during 30 minutes to 1 hour. One hour after the start of BP recording, firibastat (30 mg/kg), enalapril (5 or 10 mg/kg) and HCTZ (5 or 10 mg/kg) alone or in combination at different doses were administered to the conscious unrestrained rats by oral route. After compound administration, BP was monitored for 6 hours. MABP was calculated with the […] system (Phymep, Paris, France), consisting of a MatLab hardware unit and CHART software, running on a Macintosh computer. MABP and HR measurements were calculated by the BP signal.

Experiment [3] deals with conscious hypertensive deoxycorticosterone acetate (DOCA) salt rats. To be noted: oral administrations, 15 to 150 mg/kg; cited from earlier work.

Consider `N[C@@H](CCS(=O)(=O)O)CSSC[C@@H](N)CCS(=O)(=O)O` [firibastat, (3S,3S′) 4,4′-disulfanediylbis(3-aminobutane 1-sulfonic acid)], for which the “effect on BP” value in experiment [1] is reported as “dose-dependent decrease in BP”; in the experiment on hypertensive patients it was “lower BP”; in experiment [3] it was “dose-dependent decrease in BP”. In experiment [2] (firibastat 30 mg/kg alone, 5 h post-dosing), the “decrease in BP (change in MABP from baseline)” value is on record as −35.4±5.2 mmHg.
Regarding `CCOC(=O)[C@H](CCc1ccccc1)N[C@@H](C)C(=O)N1CCC[C@H]1C(=O)O` [enalapril], the “change in BP” value in experiment [2] (enalapril 10 mg/kg alone) is “did not induce any significant change in BP”.
Regarding `NS(=O)(=O)c1cc2c(cc1Cl)NCNS2(=O)=O` [HCTZ, hydrochlorothiazide], in experiment [2] (HCTZ 10 mg/kg alone), the “change in BP” value is listed as “did not induce any significant change in BP”.
